Assay: gradient 5% acetonitrile 3 min, to 50% in 2 min, to 85% in 15 min, held 3 min, 100 µL/min
Conditions: column: Zorbax Extend-C18 2.1 x 50 mm; eluents: water / acetonitrile, 0.1% formic acid
In short: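 A Zorbax Extend-C18 column (2.1 × 50 mm, 1.8 μm) run at 100 μL/min with water and acetonitrile, both containing 0.1% formic acid, separated mixtures of ~100 pure standards. The HPLC was coupled to a quadrupole time-of-flight mass spectrometer operated in positive and negative ionization mode, with dead and dwell volumes of 40 μL and 900 μL. Each retention time was taken from a computationally picked adduct peak that was then manually inspected.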

Row | Compound | RP-LC retention time
1 | CCCn1cc(C(=O)NCc2ccc3c(c2)OCO3)c2cccnc21 | 758 s
2 | Cc1ccc(NC(=O)N(C)Cc2ccoc2)cc1 | 647 s
3 | COc1ccc(NC(=O)N2CCC3(C2)C(=O)Nc2ccc(OC)cc23)c(OC)c1 (stereo not given) | 715 s
4 | Cc1cc(N2CCN(c3ccccn3)CC2)n2nc(-c3ccco3)nc2n1 | 584 s
5 | O=C(NCc1ccc(N2CCOCC2)cc1)c1csc(-c2ccc(N3CCCC3)nc2)n1 | 635 s
6 | Cn1c(N2CCN(C(=O)Cc3ccc(F)cc3)CC2)cc(=O)n(C)c1=O | 680 s
7 | COCCN1C(=O)c2ccccc2C(C(=O)Nc2ccc(NC(C)=O)cc2)C12CCCCC2 (stereo not given) | 706 s
8 | O=C(CN1CCN(c2ccc3c(c2)OCCO3)C1=O)NCc1nc(-c2ccccc2)no1 | 745 s
9 | Cc1ccc(S(=O)(=O)NC(=O)NN2CCCCCC2)cc1 | 914 s
10 | Cc1ccc(S(=O)(=O)c2cnc(N3CCN(c4cc(C)ccc4C)CC3)nc2N)cc1 | 1310 s
11 | O=C(Nc1ccc2c(c1)OCCO2)N1CCN(c2cc(-c3ccccc3)ncn2)CC1 | 645 s
12 | Cc1cc(C)cc(C(=O)NC2CCN(c3cc(-c4cccs4)[nH]n3)C2)c1 (stereo not given) | 742 s
13 | O=C1CCN(C(=O)C2CCN(C(=O)CC3CCCC3)CC2)CCCCCCN1 | 686 s
14 | Cc1cc(C)cc(S(=O)(=O)N2CCC(n3cnc4ccc(C)cc4c3=O)CC2)c1 | 1010 s
15 | CCC(=O)N1C[C@@H]2C(=O)N(CCc3ccccc3)C(=O)[C@@H]2C1 | 702 s
16 | CC1CCCCN1CCCNC(=O)CCC(=O)N1CCc2c(c(C(=O)N3CCCCC3)nn2C)C1 (stereo not given) | 578 s
17 | Cn1c(=O)oc2cc(-c3noc(-c4cccc(Br)c4)n3)ccc21 | 1190 s
18 | CCc1ccccc1NC(=O)C1CCN(S(=O)(=O)c2ccc3c(c2)NC(=O)C(CC)O3)CC1 (stereo not given) | 893 s
19 | Fc1ccc(OCc2nnc3sc(-c4cccc(F)c4)nn23)cc1 | 947 s
20 | Fc1ccc(-c2nc(-c3ccc4nncn4c3)no2)c(Cl)c1 | 849 s
21 | COc1ccc(CCC(=O)NCC2CCN(C(=O)NC(C)(C)C)CC2)cc1 | 687 s
22 | O=C(NC1CCCC1)c1nc(C(=O)N2CCN(c3ccccn3)CC2)cs1 | 595 s
23 | Cc1cc(=O)n(CC(=O)Nc2cccc(C(F)(F)F)c2)c(N2CCOCC2)n1 | 754 s
24 | Cc1ccc(Nc2c(-c3ccccc3)nc3cc(C)ccn23)cc1 | 741 s
25 | COC(=O)c1cc(S(=O)(=O)N2CCCC2C(=O)N2CCc3ccccc32)cn1C (stereo not given) | 848 s
26 | CCCn1cc(-c2ccncc2)cc1C(=O)NC1CCCCC1 | 685 s
27 | CCOc1ccc(-n2nnc3c(=O)n(C/C=C/c4ccccc4)cnc32)cc1 | 969 s
28 | COc1ccc(NC(=O)Nc2ccc(-c3cn4ccc(C)nc4n3)cc2)cc1 | 626 s
29 | O=C(c1ccsc1)N1CCCC(c2nc(-c3ccccc3)n[nH]2)C1 (stereo not given) | 716 s
30 | CCCCNC(=O)C1CCC(=O)N(c2cc(OC)c(OC)c(OC)c2)C1c1ccc(OC)cc1 (stereo not given) | 709 s

Second part, the compound after the results:

Row | RP-LC retention time | Compound
31 | 861 s | O=C(Nc1cc(F)ccc1F)c1ccc(=O)n(Cc2cccc(C(F)(F)F)c2)c1
32 | 822 s | O=C(CCn1nnc2cc(-c3noc(-c4ccc(Br)o4)n3)ccc21)N1CCOCC1
33 | 824 s | COC(=O)c1ccc(NC(=O)NCc2noc3ccccc23)cc1
34 | 612 s | O=C(Cc1cccs1)N1CCc2[nH]cnc2C1c1ccccc1 (stereo not given)
35 | 669 s | COc1nn(C)cc1C(=O)NCC(O)c1ccc(C(F)(F)F)cc1 (stereo not given)
36 | 946 s | O=C(NCc1ccccc1Cl)c1nc(Cn2c(=O)oc3ccccc32)no1
37 | 1040 s | O=C(Cn1cnc2c(sc3nc(-c4ccccc4)ccc32)c1=O)Nc1cc(F)ccc1F
38 | 624 s | CC(C)n1c(CCNC(=O)Cc2ccsc2)nc2cccnc21
39 | 955 s | COc1ccc(Cl)cc1C(=O)Nc1ccc2c(c1)N(C)C(=O)C(C)(C)CO2
40 | 895 s | Cc1ccc(CN2N=C(C(=O)N3CCCC3)S(=O)(=O)c3ccccc32)cc1
41 | 712 s | O=C(CN1C(=O)COc2ccccc21)N1CCSCC1
42 | 830 s | Cn1c(=O)sc2cc(S(=O)(=O)N3CCC(C(=O)NCCc4ccccc4)CC3)ccc21
43 | 830 s | COC(=O)c1cc(S(=O)(=O)N2CCCC2C(=O)Nc2ccc(F)cc2)cn1C (stereo not given)
44 | 827 s | Cc1ccc(Nc2c(-c3ccc(Cl)cc3)nc3nc(C)cc(C)n23)cc1
45 | 944 s | COc1ccc(-c2nc(C3CC(=O)N(c4ccc(Cl)cc4)C3)no2)cc1OC (stereo not given)
46 | 846 s | CCOc1ccccc1NS(=O)(=O)c1cc(-c2c(CC)noc2NC(C)=O)ccc1C
47 | 990 s | COc1ccc(-c2nnc(-c3ccc(OC)c(S(=O)(=O)N4CCC(C)CC4)c3)o2)cc1OC
48 | 851 s | O=C(NCCc1c[nH]c2ccc(Cl)cc12)c1cncc(Br)c1

Row | RP-LC retention time | Compound
49 | 706 s | O=[N+]([O-])c1ccc(CSc2nnc(-c3ccncc3)n2-c2ccccc2)cc1
50 | 696 s | Cc1ccc(S(=O)(=O)Nc2cc(-c3cn4ccc(C)cc4n3)ccc2C)cc1
51 | 732 s | Cc1sc(NC(=O)C2CCCO2)nc1-c1ccc2c(c1)NC(=O)CO2 (stereo not given)
52 | 780 s | Cc1ccc(CNC(=O)C2(C)Cn3cnc(C(=O)NCc4ccccc4F)c3C(=O)N2C2CC2)cc1 (stereo not given)
53 | 700 s | Cc1cc(Cn2cnc3c2C[C@@H](C(=O)O)N(C(=O)C(c2ccccc2)c2ccccc2)C3)ccc1N
54 | 624 s | CCn1nccc1C(=O)N1CC(N(C2CCOCC2)S(C)(=O)=O)C1
55 | 1020 s | Cn1cc(S(=O)(=O)N2CCCCC2)cc1C(=O)Nc1cccc(F)c1
56 | 1140 s | CCCCNC(=O)c1c(O)c2cccnc2n(-c2cccc(OC)c2)c1=O
57 | 681 s | CN(Cc1ccccc1)C(=O)c1cc2c(n1C)CCN(Cc1cccc(F)c1)C2
58 | 842 s | O=C(Cc1ccc(Cl)cc1)N1CCN(S(=O)(=O)c2cc3c4c(c2)CCC(=O)N4CCC3)CC1
59 | 772 s | O=C(c1cc(F)ccc1F)N1CCC(OCC2CC2)C1 (stereo not given)
60 | 589 s | CCCN1CCN(CCCNC(=O)CN2C(=O)CCn3nc(-c4cn(C)c5ccccc45)cc32)CC1
61 | 1090 s | Cc1ccc(-c2nc(-c3ccc4c(c3)nnn4CCC(=O)N3CCCC3)no2)c(C)c1
62 | 957 s | CCCNC(=O)c1cc(-c2ccc(Cl)cc2)cn1C
63 | 764 s | O=C(NC1CCCCCC1)c1ccc(-c2cncnc2)nc1
64 | 1090 s | Cc1c(Cl)cccc1S(=O)(=O)N1CCc2c(c(-c3nnc(-c4ccc(F)cc4)o3)nn2C)C1
65 | 638 s | COc1ccc(Cl)c2c(=O)c3c([nH]c12)CCN(CC(=O)Nc1ccccc1Cl)C3

Source: the METLIN SMRT retention time set (Domingo-Almenara et al. 2019)
